In patent US10413505B1, “Pharmaceutical compositions and methods of using the same” (priority 2017, dated 2019):
Where a name gives a salt, the structure may show the parent alone. Read-outs that look alike come from different tables or passages of the source.

Tests used:
[1] = test system: subjects undergoing diagnostic procedures and surgeries on or through the mucous membranes of the nasal cavities
Description: Example 8 was a randomized, prospective, double-blind, multicenter, single-dose, placebo and dose-controlled, parallel-group study to evaluate the safety of the 4% and 8% cocaine hydrochloride pharmaceutical compositions as described in Example 4 used as a local anesthetic for diagnostic procedures and surgeries on or through the mucous membranes of the nasal cavities (e.g., nasal/sinus endoscopy, sinusotomy, fracture nasal turbinate(s), lysis intranasal synechia, insertion of nasal septal prosthesis, intranasal biopsy, excision of nasal polyps, excision turbinate(s), removal of an intranasal foreign body, septoplasty, or sinus debridement). […] The study consisted of a screening period within 14 days of a diagnostic procedure or surgery; a treatment period on the day of the diagnostic procedure or surgery (Day 1); and a follow-up visit (Day 8).
Two saturated pledgets were placed into each nasal cavity and up against the septum for 20 minutes. After 20 minutes the pledgets were removed from the subjects.
To address the potential for the impact of body weight on efficacy and safety, the study conducted the following additional analyses: • Analysis of efficacy (primary endpoint) for 2 subgroups of low weight subjects: <50 kg and <60 kg (see Table 53) • Analysis of safety (AEs) for 2 subgroups of low weight subjects: <50 kg and <60 kg (see Table 54) • Analysis of safety (AEs) for 2 subgroups of subjects based on dose determined on a mg/kg basis (regardless of 4% or 8% dose): ≤3 mg/kg or >3 mg/kg) (Table 55) Note: There is overlap between the body weight groups examined because the <60 kg group has no lower limit of weight.

[2] = test system: Sprague Dawley rats; experiment: Example 10 cocaethylene HCl intranasal toxicity, Single-Dose Phase; assay type: in vivo, rat
Description: Cocaethylene HCl in the vehicle (deionized water) was administered by intranasal instillation once to a group (Group 2) of Sprague Dawley rats at a dose level of 2.1 mg/kg. […] The dose volume was 0.22 mL/kg, divided between the 2 nares, for both groups. Groups 1 and 2 each consisted of 20 animals/sex. Following dose administration, 10 animals/sex/group were euthanized on Study Day 1; the remaining 10 animals/sex/group were euthanized following a 14-day non-dosing (recovery) period. Criteria for evaluation included daily mortality observations, daily clinical observations, detailed physical observations, body weights, food consumption, clinical pathology (hematology, coagulation, serum chemistry, and urinalysis), organ weights, gross pathology, and microscopic examination of select tissues.
(§1) The vehicle and test article formulations were administered by intranasal instillation into each naris via a syringe equipped with stainless steel-shafted, stainless steel ball-tipped dosing cannula once (Single-Dose Phase) or once daily for 14 consecutive days (Repeat-Dose Phase), through the day prior to the primary necropsy. The same syringe and dosing cannula was used to administer the dose across both nares for a given animal on a given dosing day. The total dose volume administered per dose was split approximately equally across each naris, such that approximately half of the total dose volume was administered into one naris, and the remaining was administered into the other naris. Treatment administration across each naris for an individual animal occurred at approximately the same time. The dose volume for all groups was 0.22 mL/kg. Individual doses were based on the most recently recorded body weights. Adjusted doses became effective the day of collection of the weekly body weights. The first day of dosing was Study Day 0; the first week of dosing was Study Week 0.
(§2) All animals were observed twice daily, once in the morning and once in the afternoon, for mortality and moribundity.
(§3) Clinical examinations were performed at the time of dose administration and 1 to 2 hours following dose administration. During the recovery period, the animals were observed once daily. The absence or presence of findings was recorded for individual animals at the scheduled intervals. For the Single-Dose Phase, detailed physical examinations were conducted on all animals within 4 days of receipt, on the day of randomization, and on Study Days 0, 1, 7, and 14. For the Repeat-Dose Phase, detailed physical examinations were conducted on all animals within 4 days of receipt, on the day of randomization, weekly (±2 days) during the study period, and on the day of the scheduled necropsies. Daily observations during the recovery period were not necessary on days when detailed physical examinations were conducted.
(§4) Individual body weights were recorded within 4 days of receipt, on the day of randomization, Study Day 0 (prior to dosing), weekly (±2 days) during the study period, and on the day prior to the scheduled necropsies (nonfasted). Mean body weights and mean body weight changes were calculated for the corresponding intervals. Final body weights (fasted) were recorded on the day of the scheduled necropsies.
(§5) Cage food weights were recorded once weekly (±2 days) beginning following randomization and throughout the study period. Food consumption was calculated as g/animal/day for the corresponding body weight intervals.
(§6) Blood and urine samples for clinical pathology evaluations (hematology, coagulation, serum chemistry, and urinalysis) were collected from all animals assigned to the scheduled necropsies. The animals were fasted overnight prior to blood collection while in metabolism cages for urine collection. Blood was collected from a jugular vein and from the vena cava at the time of necropsy. Blood was collected into tubes containing potassium K2EDTA (hematology), sodium citrate (coagulation), or no anticoagulant (serum chemistry). […]

[3] = test system: Sprague Dawley rats; experiment: Example 10 cocaethylene HCl intranasal toxicity, Repeat-Dose Phase; assay type: in vivo, rat
Description: Cocaethylene hydrochloride in the vehicle was administered by intranasal instillation once daily for 14 days to a group (Group 2) of Sprague Dawley rats at a dosage level of 2.1 mg/kg/day. […] The dose volume was 0.22 mL/kg, divided between the 2 nares, for both groups. Groups 1 and 2 each consisted of 15 animals/sex. Following 14 days of dose administration, 10 animals/sex/group were euthanized; the remaining […] animals/sex/group were euthanized following a 14-day nondosing (recovery) period. Criteria for evaluation included daily mortality observations, daily clinical observations, detailed physical observations, body weights, food consumption, clinical pathology (hematology, coagulation, serum chemistry, and urinalysis), organ weights, gross pathology, and microscopic examination of select tissues.
as §1, §2, §3, §4, §5, §6

[4] = 2.1 mg/kg once, intranasal instillation
[5] = 2.1 mg/kg/day for 14 days, intranasal instillation

## COC(=O)[C@H]1[C@@H](OC(=O)c2ccccc2)C[C@@H]2CC[C@H]1N2C [Cocaine HCl]
[1]; >3% mg/kg
  Adverse events: Anxiety: 2 (0.8) n (%)
  Adverse events: Dermatitis allergic: 1 (0.4) n (%)
  Adverse events: Dizziness: 1 (0.4) n (%)
  Adverse events: Dysphonia: 0 n (%)
  Adverse events: Epistaxis: 2 (0.8) n (%)
  Adverse events: Eye disorders: 1 (0.4) n (%)
  Adverse events: Facial pain: 1 (0.4) n (%)
  Adverse events: Fatigue: 0 n (%)
  Adverse events: Foreign body sensation in eyes: 1 (0.4) n (%)
  Adverse events: Gastrointestinal disorders: 1 (0.4) n (%)
  Adverse events: General disorders and administration site conditions: 1 (0.4) n (%)
  Adverse events: Headache: 4 (1.6) n (%)
  Adverse events: Hypertension: 0 n (%)
  Adverse events: Injury, poisoning and procedural complications: 1 (0.4) n (%)
  Adverse events: Lip swelling: 1 (0.4) n (%)
  Adverse events: Masculoskeletal and connective tissue disorders: 1 (0.4) n (%)
  Adverse events: Medication error: 1 (0.4) n (%)
  Adverse events: Nasal congestion: 1 (0.4) n (%)
  Adverse events: Nausea: 0 n (%)
  Adverse events: Neck pain: 1 (0.4) n (%)
  Adverse events: Nervous system disorders: 5 (2.0) n (%)
  Adverse events: Psychiatric disorders: 2 (0.8) n (%)
  Adverse events: Respiratory, thoracic and mediastinal disorders: 3 (1.2) n (%)
  Adverse events: Rhinorrhea: 0 n (%)
  Adverse events: Skin and subcutaneous tissue disorders: 2 (0.8) n (%)
  Adverse events: Sneezing: 0 n (%)
  Adverse events: Upper-airway cough syndrome: 0 n (%)
  Adverse events: Vascular disorders: 0 n (%)
  Adverse events: Vision blurred: 0 n (%)
  Any AE: 14 (5.7) n (%)
[1]; >3% mg/kg, under General disorders and administration site conditions
  Adverse events: Cold sweat: 0 n (%)
[1]; >3% mg/kg, under Skin and subcutaneous tissue disorders
  Adverse events: Cold sweat: 1 (0.4) n (%)
[1]; ≤3 mg/kg
  Adverse events: Anxiety: 0 n (%)
  Adverse events: Dermatitis allergic: 0 n (%)
  Adverse events: Dizziness: 1 (0.3) n (%)
  Adverse events: Dysphonia: 1 (0.3) n (%)
  Adverse events: Epistaxis: 3 (1.0) n (%)
  Adverse events: Eye disorders: 1 (0.3) n (%)
  Adverse events: Facial pain: 0 n (%)
  Adverse events: Fatigue: 1 (0.3) n (%)
  Adverse events: Foreign body sensation in eyes: 0 n (%)
  Adverse events: Gastrointestinal disorders: 1 (0.3) n (%)
  Adverse events: General disorders and administration site conditions: 2 (0.7) n (%)
  Adverse events: Headache: 7 (2.3) n (%)
  Adverse events: Hypertension: 1 (0.3) n (%)
  Adverse events: Injury, poisoning and procedural complications: 0 n (%)
  Adverse events: Lip swelling: 0 n (%)
  Adverse events: Masculoskeletal and connective tissue disorders: 0 n (%)
  Adverse events: Medication error: 0 n (%)
  Adverse events: Nasal congestion: 0 n (%)
  Adverse events: Nausea: 1 (0.3) n (%)
  Adverse events: Neck pain: 0 n (%)
  Adverse events: Nervous system disorders: 7 (2.3) n (%)
  Adverse events: Psychiatric disorders: 0 n (%)
  Adverse events: Respiratory, thoracic and mediastinal disorders: 6 (2.0) n (%)
  Adverse events: Rhinorrhea: 1 (0.3) n (%)
  Adverse events: Skin and subcutaneous tissue disorders: 0 n (%)
  Adverse events: Sneezing: 1 (0.3) n (%)
  Adverse events: Upper-airway cough syndrome: 0 n (%)
  Adverse events: Vascular disorders: 1 (0.3) n (%)
  Adverse events: Vision blurred: 1 (0.3) n (%)
  Any AE: 13 (4.3) n (%)
[1]; ≤3 mg/kg, under General disorders and administration site conditions
  Adverse events: Cold sweat: 1 (0.3) n (%)
[1]; ≤3 mg/kg, under Skin and subcutaneous tissue disorders
  Adverse events: Cold sweat: 0 n (%)

## CCOC(=O)[C@@H]1C2CCC(C[C@@H]1OC(=O)c1ccccc1)N2C (stereo partly shown) [cocaethylene HCl, cocaethylene hydrochloride]
[2]; [4]
  body weights: unaffected
  clinical observations: no test article-related clinical observations
  food consumption: unaffected
  hematology and coagulation parameters: unaffected
  macroscopic examination at necropsy: no test article-related macroscopic findings
  organ weights: unaffected
  serum chemistry parameters: unaffected
  survival: All animals survived
  urinalysis parameters: unaffected
[2]; 2.1 mg/kg once, intranasal instillation, also after 14-day recovery
  microscopic examination (nasal cavity with turbinates): No test article-related microscopic findings
[2]; Single-Dose Phase, 9.6 mg/mL in deionized water, pH meter
  pH of the dosing formulation: 2.81
[3]; 2.1 mg/kg once or once daily for 14 days, intranasal instillation
  tolerability: well tolerated
[3]; [5]
  body weights: unaffected
  clinical observations: no test article-related clinical observations
  food consumption: unaffected
  hematology and coagulation parameters: unaffected
  macroscopic examination at necropsy: no test article-related macroscopic findings
  organ weights: unaffected
  serum chemistry parameters: unaffected
  survival: All animals survived
  urinalysis parameters: unaffected
[3]; 2.1 mg/kg/day for 14 days, intranasal instillation, also after 14-day recovery
  microscopic examination (nasal cavity with turbinates): No test article-related microscopic findings
[3]; Repeat-Dose Phase, 9.6 mg/mL in deionized water, pH meter
  pH of the dosing formulation: 2.81
[3]; intranasal instillation once or once daily for 14 days
  no-observed-effect level (NOEL): 2.1 mg/kg/day
